Values belong to the compound of their own block, whether it stands above or below them.
Tests used:
[1] = biological target: rat PI3Kγ (Rattus norvegicus, UniProt D3ZFJ0); test: PI3K γ assay: CXCL1/CINC-1-stimulated CD11b expression on rat whole blood neutrophils (FACS); format: cell-based; settings: reference inhibitors, at the relevant concentration
Experimental: (§1) PI3K γ assay: whole blood from male Sprague Dawley rat was collected in heparin coated tubes and pre-treated (1 hr., 37 °C, 5% CO2) with vehicle DMSO or PI3K inhibitors followed by stimulation with Rat CXCL1/CINC-1 (515-CN-050, R&D) at 500 ng/mL (EC80 determined in house; 1 hr., RT). Next, cells were stained with Fc block (550,273, BD bioscience, 1:100; 20 mins, RT), CD45R-B220-PeCy7 (HIS24) (25–0460-82, eBioscience, 1:100), CD43-PE (W3/13) (202,812, Biolegend, 1:100), HIS48-FITC (11–0570-82, eBioscience, 1:100), CD11b-APC (562,102, BD Bioscience, 1:100). Cells were lysed and fixed with BD FACS lysing solution (349,202, BD Biosciences; 45 mins, RT) before FACS acquisition (BD LSRFortessa™). Data were analysed using FlowJo 9.9 software (TreeStar). FACS gating strategy: lymphocytes (FSC-A vs SSC-A), doublets exclusion (FSC-W vs FSC-H), neutrophil identification B220-, HIS48hi, CD43hi, SSC-Ahi, geom. MFI for CD11b on neutrophils. IC50 values were determined in Graph Pad through a nonlinear fit on log transform data: log inhibitor vs response, variable slope, 4 parameters. Fraction unbound in diluted whole blood is calculated using the following equation: fu^′=DF·fub/1+DF-1·fub where fu’ is the fraction unbound in diluted whole blood; fub is the fraction unbound in undiluted whole blood; DF is the dilution factor. Fraction unbound in 100% whole blood (fub) is calculated as fup/BP, where fup is the experimentally determined fraction unbound in undiluted plasma and BP is the experimentally determined blood to plasma partition ratio of drug Table 1.

[2] = biological target: T1, rat PI3Kδ (Rattus norvegicus, UniProt A0A8I5Y949); test: PI3K δ assay: anti-IgM-stimulated CD86 expression on rat splenic B cells (FACS); format: cell-based; settings: reference inhibitors, at the relevant concentration
T1 sequence (A0A8I5Y949 1-1047): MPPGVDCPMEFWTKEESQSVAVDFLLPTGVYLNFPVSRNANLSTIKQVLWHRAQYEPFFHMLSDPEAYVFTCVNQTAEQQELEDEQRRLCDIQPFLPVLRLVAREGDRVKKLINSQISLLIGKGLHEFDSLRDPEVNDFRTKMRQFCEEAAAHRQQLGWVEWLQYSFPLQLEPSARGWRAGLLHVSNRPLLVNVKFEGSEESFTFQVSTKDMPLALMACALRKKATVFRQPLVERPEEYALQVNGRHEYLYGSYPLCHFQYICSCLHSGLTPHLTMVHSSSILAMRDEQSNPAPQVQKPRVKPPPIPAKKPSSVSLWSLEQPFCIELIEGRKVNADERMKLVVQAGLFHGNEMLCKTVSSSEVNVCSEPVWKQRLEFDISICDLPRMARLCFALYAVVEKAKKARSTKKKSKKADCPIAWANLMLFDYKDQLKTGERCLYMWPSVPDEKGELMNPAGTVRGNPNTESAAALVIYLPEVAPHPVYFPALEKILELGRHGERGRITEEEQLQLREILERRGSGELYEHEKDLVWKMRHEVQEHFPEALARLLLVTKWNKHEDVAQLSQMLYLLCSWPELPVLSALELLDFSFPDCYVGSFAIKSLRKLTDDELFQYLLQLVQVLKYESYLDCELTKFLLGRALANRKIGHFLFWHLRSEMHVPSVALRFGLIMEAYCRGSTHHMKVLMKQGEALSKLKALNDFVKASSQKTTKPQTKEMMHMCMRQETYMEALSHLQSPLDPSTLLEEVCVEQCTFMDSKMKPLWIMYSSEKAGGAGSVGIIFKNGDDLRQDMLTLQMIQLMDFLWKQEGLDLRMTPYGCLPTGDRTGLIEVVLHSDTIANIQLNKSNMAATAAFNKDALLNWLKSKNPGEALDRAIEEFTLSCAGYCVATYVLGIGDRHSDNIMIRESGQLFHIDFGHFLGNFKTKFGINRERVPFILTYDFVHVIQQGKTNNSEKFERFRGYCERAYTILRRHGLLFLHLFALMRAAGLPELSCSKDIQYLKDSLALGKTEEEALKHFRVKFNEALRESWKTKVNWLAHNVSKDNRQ
Experimental: (§2) PI3K δ assay: single cell suspension was obtained from the spleen of male Sprague Dawley rat; cells were cultured in RPMI containing heat-inactivated 10% FBS, pre-treated (1 hr., 37 °C, 5% CO2) with vehicle DMSO or PI3K inhibitors, followed by stimulation with AffiniPure F(ab’)2 Fragment Goat Anti-Rat IgM, μ chain specific, Jackson Immunoresearch (112–006-075) at 5 μg/mL (EC80 determined in house; 20–22 hrs). Then, cells were washed with FACS buffer (2% FBS, […]) and stained (15 mins, 4 °C) with Fc block (1:100, 550,273, BD bioscience), LIVE/DEAD Fixable Aqua Dead Cell Stain Kit (L34957, Invitrogen, 1:300), CD45R (B220)-PeCy7 (HIS24) (25–0460-82, eBioscience, 1:100), CD3-AF647 (IF4) (201,408, Biolegend, 1:100), CD86-FITC (24F) (200,305, Biolegend, 1:50). Cells were acquired on the Flow Cytometer (BD LSRFortessa™) and analysed using FlowJo 9.9 software (TreeStar). FACS gating strategy: lymphocytes (FSC-A vs SSC-A), doublets exclusion (FSC-W vs FSC-H), live cells (Aqua-530-), B cell identification CD3- B220 + % of positive B cells for CD86. IC50 values were determined in Graph Pad through a nonlinear fit on log transform data: log inhibitor vs response, variable slope, 4 parameters. Fraction unbound in in vitro assay is calculated using the following equation: fu^′=DF·fup/1+DF-1·fup where fu’ is the fraction unbound in assay media; fup is the experimentally determined fraction unbound in undiluted human plasma; DF is the dilution factor (fold difference between protein concentration in human plasma and assay media, using an albumin concentration of 600 μM (40 g/L) for undiluted plasma) Table 2.

[3] = Rat plasma protein binding, blood to plasma ratio, unbound fraction in whole blood; format: in vitro ADME; settings: for Rat fub: fraction unbound in 100% whole blood, fup/BP; for fraction unbound: rat
Experimental: as §1, with “Next,” for “PI3K γ assay: whole blood from male Sprague Dawley rat was collected in heparin coated tubes and pre-treated (1 hr., 37 °C, 5% CO2) with vehicle DMSO or PI3K inhibitors followed by stimulation with Rat CXCL1/CINC-1 (515-CN-050, R&D) at 500 ng/mL (EC80 determined in house; 1 hr., RT). Next,”

[4] = Human plasma protein binding and unbound fraction in assay media; format: in vitro ADME
Experimental: as §2

[5] = test system: asthma patients; settings: cited from earlier work
[6] = test system: PI3K pathway (pAkt); test: Rat model of allergic asthma: lung tissue pAkt (T308), target engagement; format: in vivo, Brown Norway rat; settings: i.t. 1 hr before OVA challenge; AZD8154 0.02, 0.1, 0.3 mg/kg, budesonide 3 mg/kg; lung 2 hrs after challenge
Experimental: (§3) Male, adult, Brown Norway rats were obtained from Charles River Germany at a body weight range of 250-300 g. Animals were housed in temperature controlled individually ventilated cages in groups of 4 with food and water provided ad libitum. Animals underwent acclimatisation for at least 1 week prior to experimentation. Experiments were performed in accordance with the UK Home Office guidelines for animal welfare based on the Animals (Scientific Procedures) Act of 1986 and the ARRIVE guidelines (Fig. E2).
Initially a time course study was performed, followed by a characterisation study with compound & clinical comparator. […]
5 μL of supernatant (1:50 dilution) was taken for Bradford Assay which was run according to manufacturers’ instructions (BioRad, USA). […] Absorbance was measured using a spectrophotometer and total protein values interpolated to standard curve (595 nm; Spectromax, UK).
10 μg of protein from lung tissue extract were utilized in pAkt (T308); pSTAT3, pSTAT4 & STAT5a, b (Phospho-STAT Panel kit) MSD Assay plates (Meso Scale Delivery, USA) and run according to manufacturers’ instructions. Arbitrary electrochemiluminescence signals were read, the blank subtracted and values determined in each plate using a MSD S-Plex plate reader (Meso Scale Delivery, USA).

[7] = test system: Brown Norway rats, OVA sensitised and challenged; test: Rat model of allergic asthma: BAL cellular inflammation; format: in vivo, Brown Norway rat; settings: BAL 24 hrs after OVA challenge; i.t. dosing
Experimental: as §3
(§4) Initially a time course study was performed, followed by a characterisation study with compound & clinical comparator. For both studies, rats were sensitised on day 0, 14 and 21 by an intraperitoneal (i.p.) injection of 4 mL/kg (1 mL/rat) of ovalbumin (OVA;100 μg/rat) in Imject™ Alum (20 mg/rat aluminium hydroxide and 20 mg/rat magnesium hydroxide) or sham sensitised (Saline [Sal] in Imject™ Alum). On day 28 rats were challenged with 1% (w/v) aerosolised OVA in isotonic saline, or sham challenged with isotonic saline (30 mins).
Following blood collection, rats underwent tracheostomy and were cannulated. Rats were lavaged and bronchoalveolar lavage (BAL) fluid was collected (2 × 3 mL RPMI, 30 secs, 70% vol. retained). Slides were prepared using 100 μL of neat BAL, centrifuged (700 rpm, 5 mins, RT, low acceleration; Cytospin 2, Shandon, Runcorn, UK). 800 μL of neat BAL was collected and centrifuged (800×g, 10 mins, 4 °C). Supernatant was collected and stored (− 80 °C), and cell pellet was resuspended (200 μL, RPMI), total leukocytes were attained using a Sysmex XP-300 automated cell counter (Sysmex Ltd., Milton Keynes, UK). Remaining BAL was centrifuged (800×g, 10 mins, 4 °C) and supernatant collected and stored (− 80 °C).
BAL cytospin slides were placed in an automated stainer (Hematek 2000, Ames. Co., USA) and stained with a Modified-Wright stain (Siemens, Germany). Differential cell counts using a light microscope were performed based on morphological criteria were performed to determine percentages of macrophages/monocytes, lymphocytes, neutrophils & eosinophils. Total numbers of each distinct cell type were determined based on total leukocyte numbers.

[8] = test system: Brown Norway rats, OVA sensitised and challenged; test: Rat model of allergic asthma: late asthmatic response (Penh, whole body plethysmography); format: in vivo, Brown Norway rat; settings: 1-6 hrs after OVA challenge; i.t. dosing
Experimental: as §3
as §4, with “On day 28 rats were challenged with 1% (w/v) aerosolised OVA in isotonic saline, or sham challenged with isotonic saline (30 mins).” left out
In both studies, 30 mins post-challenge, rats were placed unrestrained in Perspex plethysmographs connected to bias flow pumps (DSI Europe Ltd), with food and water ad libitum. 55 mins post-challenge, a five mins baseline recording was taken and the average penh and area under the curve (AUC) was recorded at 10 mins intervals for a total duration of 5 hrs and was used for analysis (DSI Europe Ltd).

Chain of rat PI3Kγ (D3ZFJ0 1-1102): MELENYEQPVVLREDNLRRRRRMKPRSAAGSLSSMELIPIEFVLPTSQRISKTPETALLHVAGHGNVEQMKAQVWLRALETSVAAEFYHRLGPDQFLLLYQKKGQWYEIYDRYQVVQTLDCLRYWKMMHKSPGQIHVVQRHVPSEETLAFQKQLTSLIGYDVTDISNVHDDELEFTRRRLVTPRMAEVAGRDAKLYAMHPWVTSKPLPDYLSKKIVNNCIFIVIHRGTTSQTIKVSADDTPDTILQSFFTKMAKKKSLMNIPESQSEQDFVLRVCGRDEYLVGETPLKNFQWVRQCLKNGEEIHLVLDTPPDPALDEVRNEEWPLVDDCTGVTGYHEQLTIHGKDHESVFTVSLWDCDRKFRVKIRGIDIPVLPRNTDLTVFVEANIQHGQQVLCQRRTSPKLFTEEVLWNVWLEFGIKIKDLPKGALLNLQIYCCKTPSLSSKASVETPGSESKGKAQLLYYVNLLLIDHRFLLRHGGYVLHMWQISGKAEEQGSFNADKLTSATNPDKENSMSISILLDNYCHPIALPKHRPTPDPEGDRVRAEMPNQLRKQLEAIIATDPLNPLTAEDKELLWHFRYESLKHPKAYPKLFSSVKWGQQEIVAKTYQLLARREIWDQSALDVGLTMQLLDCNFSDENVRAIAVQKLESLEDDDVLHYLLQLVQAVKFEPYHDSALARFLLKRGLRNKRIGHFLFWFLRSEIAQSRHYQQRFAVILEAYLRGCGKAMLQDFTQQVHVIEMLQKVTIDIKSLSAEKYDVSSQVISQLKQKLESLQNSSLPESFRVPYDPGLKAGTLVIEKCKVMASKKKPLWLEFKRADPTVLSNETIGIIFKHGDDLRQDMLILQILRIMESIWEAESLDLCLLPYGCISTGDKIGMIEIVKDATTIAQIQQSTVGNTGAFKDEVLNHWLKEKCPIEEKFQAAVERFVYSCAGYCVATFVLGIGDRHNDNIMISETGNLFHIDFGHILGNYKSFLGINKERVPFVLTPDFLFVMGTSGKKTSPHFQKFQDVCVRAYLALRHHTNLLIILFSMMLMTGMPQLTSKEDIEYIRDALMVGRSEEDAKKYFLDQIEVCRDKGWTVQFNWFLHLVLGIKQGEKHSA

effect in PI3Kγ assay (CD11b expression) [1]: blocked their respective assay
effect in PI3Kδ assay (CD86 expression) [2]: had no impact on the other assay
Rat fub [3]: 0.200
SMILES: CC(=O)Nc1nc(C)c(-c2cc3c(c(S(C)(=O)=O)c2)C(=O)N([C@@H](C)C2CC2)C3)s1 [AZD3458]

effect in PI3Kγ assay (CD11b expression) [1]: had no impact on the other assay
effect in PI3Kδ assay (CD86 expression) [2]: blocked their respective assay
Rat B/P ratio ([3]; blood to plasma partition ratio): 0.88
Rat fub [3]: 0.050
fraction unbound ([3]; diluted whole blood (PI3K γ assay), fraction unbound in diluted whole blood, DF 1.05 (γ assay), read-out: fu’): 0.0524
fraction unbound ([3]; plasma, rat plasma, fraction unbound, read-out: Rat ppb (fu, %)): 0.044
fraction unbound ([3]; plasma, undiluted rat plasma, fraction, read-out: Rat plasma fu): 0.044
fraction unbound ([4]; human plasma, fraction unbound, read-out: Human ppb (fu, %)): 0.021
fraction unbound ([4]; human, assay media (PI3K δ assay), fraction unbound in assay media (δ assay, RPMI 10% FBS), read-out: Fu’): 0.177
SMILES: CC(C)N1CCN(Cc2cnc(-c3cc(-c4cccc5[nH]ccc45)cc4[nH]ncc34)o2)CC1 [GSK2269557]

SMILES: CC(C)N1CCN(Cc2cnc(-c3cc(-c4cccc5[nH]ccc45)cc4[nH]ncc34)o2)CC1 [Nemarisilib]
asthma symptoms in clinical trials ([5]; inhaled): no improvement in asthma symptoms
cough propensity in clinical trials ([5]; inhaled): increase in cough propensity

SMILES: CCCC1O[C@@H]2C[C@H]3[C@@H]4CCC5=CC(=O)C=C[C@]5(C)[C@H]4[C@@H](O)C[C@]3(C)[C@]2(C(=O)CO)O1 (some centres unmarked) [budesonide]
lung tissue pAkt levels [6]: dramatic inhibition
BAL eosinophils [7]: reversing these key features to basal levels
BAL neutrophils [7]: reversing these key features to basal levels
BAL total leukocytes [7]: reversing these key features to basal levels
LAR (Penh, AUC) [8]: inhibiting the lung function change

SMILES: C[C@H](Nc1ncnc2nc[nH]c12)c1cc2cccc(Cl)c2c(=O)n1-c1ccccc1 [duvelisib]
effect in clinical asthma trials ([5]; oral): beneficial effects
